“Also recorded” adds a separate entry of the source. Where two headings read alike, the source gives them in different places.
Experiments:
LRRK2 G2019S = target: T1, LRRK2 G2019S (Homo sapiens, UniProt Q5S007, G2019S); assay: LRRK2 G2019S kinase activity assay (LanthaScreen TR-FRET); type: biochemical; conditions: 250 pM LRRK2 G2019S, 1.3 mM ATP, 3 h at 30° C.; n≥2 tests
T1 construct: purchased Invitrogen (Life Technologies Corporation)
In short: (§1)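 TR-FRET measured phosphorylation of fluorescein-ERM LRRKtide by human LRRK2 residues 970–2527, wild-type or G2019S, detected with a terbium anti-phospho-LRRKtide antibody. The 520/495 nm ratio was normalized to uninhibited and inhibitor controls. IC50 came from a Hill fit, log-averaged over independent experiments.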

LRRK2 WT = target: T2, LRRK2 WT (Homo sapiens, UniProt Q5S007); assay: LRRK2 wild-type kinase activity assay (LanthaScreen TR-FRET); type: biochemical; conditions: 1 nM LRRK2 WT, 1.3 mM ATP, 3.5 h at 30° C.; n≥2 tests
T2 construct: comprises residue 970 to 2527 of the full length human wild-type LRRK2 kinase; purchased Invitrogen (Life Technologies Corporation)
In short: as §1

[1] = Hepatocyte intrinsic clearance assay; type: in vitro ADME, human; conditions: human, pooled donor, cryopreserved hepatocytes, pH 7.4, 0.1 μM, 2 h at 37° C., 1×10^6 hepatocytes/mL; * measured on 3 separate occasions, ** on a single occasion
Method: Test compounds (final concentration 0.1 μM, 0.05% organic) were incubated for 2 h at 37° C., with shaking, in supplemented Leibovitz L-15 media (pH7.4) containing commercially sourced, pooled donor, cryopreserved hepatocytes (final concentration 1×10^6 hepatocytes/m L). The CLint reactions (350 μL) were initiated by addition of test compound. Aliquots (25 μL) were taken at 1, 5, 10, 15, 30, 60, 90 and 120 minutes and then protein crashed with ice-cold acetonitrile containing internal standard (150 μL) then centrifuged (1960 g for 20 minutes at 4° C.). Supernatant was diluted (1:4) with deionized water then analyzed by liquid chromatography (LC)-tandem mass spectrometry (MS/MS). The intrinsic clearances (CLint) were calculated from the slope (k) of the linear regressions of percentages of compound remaining in incubation against incubation time, according to equations 2 and 3.

GSH adduct screening = type: in vitro ADME, human; conditions: 1 μM, 3 h at 37° C., HLM 0.5 mg/mL, NADPH, with and without GSH
Method: Test compounds (final concentration 1 μM, 0.25% organic) were incubated for 3 h at 37° C. in commercially sourced, pooled donor, human liver microsomes (HLM, final concentration 0.5 mg/mL) with and without addition of glutathione (GSH; final concentration […]). The metabolic reaction was initiated by addition of microsomal solution to the mixture of cofactor NADPH (final concentration 1 mM), test compound and GSH. After 3 h of incubation in a water bath at 37° C., the reaction was stopped by addition of 0.2% formic acid in acetonitrile, followed by mixing and centrifugation (16000 g for 5 minutes). Supernatant was diluted (1:1) with HPLC water then analyzed by liquid chromatography (LC)-quadrupole time-of-flight mass spectrometry (QTOF-MS). Accurate mass MS and MS/MS spectra from samples with GSH and without GSH, respectively, were compared to identify detectable GSH and/or cysteine related adducts.

[2] = Rat B/P (brain disposition); type: in vivo, male Sprague-Dawley rats; conditions: male, Sprague-Dawley; for concentration at 1 h / Kp uu at 1 h / Kp at 1 h: time point 1.0 h; for concentration at 1 h / Kp at 1 h / concentration at 0.5 h / Kp at 0.5 h: mean ± stdev; for Kp uu at 1 h / Kp at 1 h / Kp uu at 0.5 h / Kp at 0.5 h: brain/plasma; for Kp uu at 1 h / Kp uu at 0.5 h: fubrain from brain homogenate; for Kp at 1 h / Kp at 0.5 h: n = 3; for concentration at 0.5 h / Kp uu at 0.5 h / Kp at 0.5 h: time point 0.5 h
Method: Brain disposition was evaluated for each compound in male Sprague-Dawley rats (n=3, standard body weight). […] Isolated plasma and brain homogenates were extracted by standard protein precipitation in acetonitrile, containing internal standard, followed by LC-MS/MS analysis using an optimized analytical method. Concentrations of test compound in plasma and brain were quantified against matrix matched calibration standards. The total plasma and brain concentration data are presented in Table 7 alongside the calculated brain Kp (total brain concentration:total plasma concentration ratio).

[3] = Free fraction in plasma (equilibrium dialysis); type: in vitro ADME, male Sprague-Dawley rat; conditions: rat plasma, 1 μM, 5 h at 37° C.
Method: The free fractions in male Sprague-Dawley rat or female Gottingen minipig plasma (fuplasma) and rat brain homogenate (fubrain) were determined by equilibrium dialysis using 96-well HTD-dialysis plates with dialysis membranes (molecular weight cut off 12-14 KDa). One side of the HTD-dialysis plate was loaded with matrix (plasma or brain homogenate) and the other side with buffer (100 mM sodium phosphate buffer, pH 7.4). Test compounds were dissolved in DMSO then spiked (5 μL of 0.2 mM) into blank (995 μL) plasma or diluted brain homogenate (1:4 ratio in phosphate buffer) giving a final nominal concentration 1 μM (≤0.5% DMSO). The matrices were loaded into respective chambers and equilibrated against phosphate buffer for 5 h at 37° C. (in a humidified air incubator with 5% CO2 with shaking). Samples from both chambers (buffer and plasma or brain homogenate) were aliquoted to fresh 96-well polypropylene plates then matrix matched using an equal volume of opposite blank matrix before extraction with cold solvent (3 volumes acetonitrile) containing an appropriate bioanalytical internal standard. After centrifugation (20 min, 3200 g, 4° C.) the supernatants were diluted with appropriate volumes of water and compound concentrations were quantified by LC/MS-MS against matrix matched calibration standards. The fuplasma and fubrain were calculated as a percent free according to equation 4 below.
Where [F] is the analyte concentration on the buffer (receiver) side of the membrane; [T] is the analyte concentration on the plasma or brain (donor) side of the membrane; [TO] is the analyte concentration in the plasma or brain sample at time zero; D is matrix dilution factor which is determined as 4 for brain matrix and 1 for plasma matrix in these assays.

[4] = brain, oral gavage 10 mg/kg, n = 3, read-out: Total brain concentration
[5] = plasma, oral gavage 10 mg/kg, n = 3, read-out: Total plasma concentration

T1 sequence (Q5S007 970-2527 G2019S): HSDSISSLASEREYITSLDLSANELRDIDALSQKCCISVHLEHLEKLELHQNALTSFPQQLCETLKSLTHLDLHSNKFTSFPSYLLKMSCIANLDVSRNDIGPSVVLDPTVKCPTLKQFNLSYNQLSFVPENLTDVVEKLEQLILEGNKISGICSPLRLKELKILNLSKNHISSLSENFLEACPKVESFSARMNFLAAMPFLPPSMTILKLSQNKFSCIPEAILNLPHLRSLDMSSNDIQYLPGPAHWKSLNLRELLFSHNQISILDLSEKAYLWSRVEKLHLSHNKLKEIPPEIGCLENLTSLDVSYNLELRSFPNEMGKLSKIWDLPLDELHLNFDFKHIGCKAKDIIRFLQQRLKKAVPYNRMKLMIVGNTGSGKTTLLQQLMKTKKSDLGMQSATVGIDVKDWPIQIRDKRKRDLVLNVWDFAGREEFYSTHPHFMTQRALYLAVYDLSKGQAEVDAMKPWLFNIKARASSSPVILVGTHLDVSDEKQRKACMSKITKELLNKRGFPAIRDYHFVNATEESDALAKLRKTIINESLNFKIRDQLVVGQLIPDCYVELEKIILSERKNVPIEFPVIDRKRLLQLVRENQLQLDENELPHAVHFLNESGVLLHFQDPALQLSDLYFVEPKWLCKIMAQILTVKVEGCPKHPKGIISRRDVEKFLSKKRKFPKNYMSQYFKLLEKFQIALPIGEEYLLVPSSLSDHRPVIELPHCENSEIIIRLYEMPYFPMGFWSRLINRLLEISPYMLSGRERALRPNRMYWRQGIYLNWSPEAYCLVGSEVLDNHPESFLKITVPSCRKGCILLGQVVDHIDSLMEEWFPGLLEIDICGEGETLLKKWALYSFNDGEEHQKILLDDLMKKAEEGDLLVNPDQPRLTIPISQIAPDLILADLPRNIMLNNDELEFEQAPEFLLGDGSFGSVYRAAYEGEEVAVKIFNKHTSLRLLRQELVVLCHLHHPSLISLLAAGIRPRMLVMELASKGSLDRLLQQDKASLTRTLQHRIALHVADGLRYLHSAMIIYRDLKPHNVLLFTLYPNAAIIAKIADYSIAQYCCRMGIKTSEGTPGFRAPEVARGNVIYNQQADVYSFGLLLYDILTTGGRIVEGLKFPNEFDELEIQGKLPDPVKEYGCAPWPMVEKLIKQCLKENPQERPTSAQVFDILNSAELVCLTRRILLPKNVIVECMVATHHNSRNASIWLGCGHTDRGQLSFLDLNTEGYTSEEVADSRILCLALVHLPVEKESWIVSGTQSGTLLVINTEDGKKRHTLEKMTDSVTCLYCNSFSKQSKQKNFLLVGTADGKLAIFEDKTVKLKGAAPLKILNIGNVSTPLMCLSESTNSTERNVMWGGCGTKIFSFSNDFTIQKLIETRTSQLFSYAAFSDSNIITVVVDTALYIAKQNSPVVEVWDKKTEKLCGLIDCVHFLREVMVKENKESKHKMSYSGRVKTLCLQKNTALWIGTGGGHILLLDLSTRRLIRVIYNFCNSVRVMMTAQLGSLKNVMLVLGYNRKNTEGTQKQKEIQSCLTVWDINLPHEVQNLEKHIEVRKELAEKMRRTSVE
T2 sequence (Q5S007 970-2527): as the sequence (Q5S007 970-2527 G2019S) above, with S1050G counted along it

| Compound | IC50 (LRRK2 G2019S) | IC50 (LRRK2 WT) | CLint scaled at 0.1 μM [1] | Adduct detected in GSH supplemented HLMs (GSH adduct screening) | concentration at 1 h [2, 4] | Kp uu at 1 h ([2]; oral gavage 10 mg/kg) | Kp at 1 h ([2]; oral gavage 10 mg/kg) | concentration at 1 h [2, 5] | fuplasma (% free) [3] | concentration at 1 h ([2]; brain, oral gavage 5 mg/kg, n = 3, read-out: Total brain concentration) | Kp uu at 1 h ([2]; oral gavage 5 mg/kg) | Kp at 1 h ([2]; oral gavage 5 mg/kg) | concentration at 1 h ([2]; plasma, oral gavage 5 mg/kg, n = 3, read-out: Total plasma concentration) | concentration at 0.5 h [2, 4] | Kp uu at 0.5 h ([2]; oral gavage 10 mg/kg) | Kp at 0.5 h ([2]; oral gavage 10 mg/kg) | concentration at 0.5 h [2, 5] |
| --- | --- | --- | --- | --- | --- | --- | --- | --- | --- | --- | --- | --- | --- | --- | --- | --- | --- |
| Cc1c2c(nn1[C@@H]1CCO[C@H](C)C1)OCCCn1nc(Cl)c3cnc(nc31)N2 (single isomer, unassigned) [Example 18] | 3.6 nM | 11 nM | < 4 mL/min/kg | +GSH | 897 ± 292 ng/g | 0.35 ± 0.05 | 1.47 ± 0.22 | 636 ± 265 ng/mL | 25.0 % free | – | – | – | – | – | – | – | – |
| Cc1c2c(nn1[C@@H]1CCOC[C@H]1F)OCCCn1nc(Cl)c3cnc(nc31)N2 (single isomer, unassigned) [Example 31, (−)-8-Chloro-2-((3S,4R) or (3R,4S)-3-fluorotetrahydro-2H-pyran-4-yl)-3-methyl-2,4,12,13-tetrahydro-11H-5,7-(azenometheno)dipyrazolo[3,4-b:5′,1′-g][1]oxa[4,6,8]triazacycloundecine] | 2.4 nM | 5.6 nM | < 4.17 mL/min/kg | – | 215 ± 70 ng/g | 0.5 ± 0.04 | 1.65 ± 0.13 | 133 ± 54 ng/mL | 24.9 % free | – | – | – | – | – | – | – | – |
| Cc1c2c(nn1[C@H]1CCOC(C)(C)C1)OCCCn1nc(Cl)c3cnc(nc31)N2 (single isomer, unassigned) [Example 42, (+)-(R) or (S)-8-Chloro-2-(2,2-dimethyltetrahydro-2H-pyran-4-yl)-3-methyl-2,4,12,13-tetrahydro-11H-5,7-(azenometheno)dipyrazolo[3,4-b:5′,1′-g][1]oxa[4,6,8]triazacycloundecine] | 2.9 nM | 7.9 nM | 6.33 mL/min/kg | – | – | – | – | – | 21.7 % free | – | – | – | – | 550 ± 283 ng/g | 0.32 ± 0.05 | 1.88 ± 0.31 | 295 ± 145 ng/mL |
| [2H]C([2H])([2H])c1c2c(nn1[C@H]1CC[C@H](OC)CC1)OCCCn1nc(Cl)c3cnc(nc31)N2 [Example 50] | 5.3 nM | 10 nM | < 4 mL/min/kg | did not form GSH adduct; also recorded: None detected | – | – | – | – | – | – | – | – | – | – | – | – | – |
| Cc1c2c(nn1C1CCOCC1)OCCCn1nc(Cl)c3cnc(nc31)N2 [Example 2, 8-Chloro-3-methyl-2-(tetrahydro-2H-pyran-4-yl)-2,4,12,13-tetrahydro-11H-5,7-(azenometheno)dipyrazolo[3,4-b:5′,1′-g][1]oxa[4,6,8]triazacycloundecine] | – | – | 14.2 mL/min/kg | +GSH | – | – | – | – | – | – | – | – | – | – | – | – | – |
| Cc1c2c(nn1[C@H]1CCCOCC1)OCCCn1nc(Cl)c3cnc(nc31)N2 (single isomer, unassigned) [Example 29, (−)-(R) or (S)-8-Chloro-3-methyl-2-(oxepan-4-yl)-2,4,12,13-tetrahydro-11H-5,7-(azenometheno)dipyrazolo[3,4-b:5′,1′-g][1]oxa[4,6,8]triazacycloundecine] | 4.3 nM | 14 nM | 6.33 mL/min/kg | – | – | – | – | – | – | – | – | – | – | – | – | – | – |

Continued, values first:

| IC50 (LRRK2 G2019S) | IC50 (LRRK2 WT) | CLint scaled at 0.1 μM [1] | Adduct detected in GSH supplemented HLMs (GSH adduct screening) | concentration at 1 h [2, 4] | Kp uu at 1 h ([2]; oral gavage 10 mg/kg) | Kp at 1 h ([2]; oral gavage 10 mg/kg) | concentration at 1 h [2, 5] | fuplasma (% free) [3] | concentration at 1 h ([2]; brain, oral gavage 5 mg/kg, n = 3, read-out: Total brain concentration) | Kp uu at 1 h ([2]; oral gavage 5 mg/kg) | Kp at 1 h ([2]; oral gavage 5 mg/kg) | concentration at 1 h ([2]; plasma, oral gavage 5 mg/kg, n = 3, read-out: Total plasma concentration) | concentration at 0.5 h [2, 4] | Kp uu at 0.5 h ([2]; oral gavage 10 mg/kg) | Kp at 0.5 h ([2]; oral gavage 10 mg/kg) | concentration at 0.5 h [2, 5] | Compound |
| --- | --- | --- | --- | --- | --- | --- | --- | --- | --- | --- | --- | --- | --- | --- | --- | --- | --- |
| 7.3 nM | 25 nM | 9.5 mL/min/kg | – | – | – | – | – | 19.9 % free | 443 ± 50 ng/g | 0.52 ± 0.01 | 1.63 ± 0.03 | 273 ± 36 ng/mL | – | – | – | – | Cc1c2c(nn1[C@H]1CCCCOC1)OCCCn1nc(Cl)c3cnc(nc31)N2 (single isomer, unassigned) [Example 27, (−)-(R) or (S)-8-Chloro-3-methyl-2-(oxepan-3-yl)-2,4,12,13-tetrahydro-11H-5,7-(azenometheno)dipyrazolo[3,4-b:5′,1′-g][1]oxa[4,6,8]triazacycloundecine] |
| 4.3 nM | 13 nM | < 4 mL/min/kg | – | – | – | – | – | 25.5 % free | – | – | – | – | 731 ± 223 ng/g | 0.3 ± 0.04 | 1.56 ± 0.23 | 468 ± 117 ng/mL | Cc1c2c(nn1[C@@H]1C[C@H]3CC[C@@H](C1)O3)OCCCn1nc(Cl)c3cnc(nc31)N2 [Example 44, 2-((1R,3s,5S)-8-Oxabicyclo[3.2.1]octan-3-yl)-8-chloro-3-methyl-2,4,12,13-tetrahydro-11H-5,7-(azenometheno)dipyrazolo[3,4-b:5′,1′-g][1]oxa[4,6,8]triazacycloundecine] |
| 6.4 nM | 17 nM | 5.67 mL/min/kg | – | – | – | – | – | 25.2 % free | – | – | – | – | 620 ± 30 ng/g | – | 2.5 ± 0.31 | 250 ± 24 ng/mL | Cc1c2c(nn1[C@H]1C[C@@H](C)O[C@@H](C)C1)OCCCn1nc(Cl)c3cnc(nc31)N2 [Example 41, 8-chloro-2-((2R,4r,6S)-2,6-dimethyltetrahydro-2H-pyran-4-yl)-3-methyl-2,4,12,13-tetrahydro-11H-5,7-(azenometheno)dipyrazolo[3,4-b:5′,1′-g][1]oxa[4,6,8]triazacycloundecine] |
| 5.3 nM | 9 nM | < 4 mL/min/kg | +GSH | – | – | – | – | – | – | – | – | – | – | – | – | – | [2H]C([2H])([2H])c1c2c(nn1[C@H]1CCO[C@@H](C)C1)OCCCn1nc(Cl)c3cnc(nc31)N2 (single isomer, unassigned) [Example 51, (+)-8-Chloro-3-(methyl-d3)-2-((2R,4R) or (2S,4S)-2-methyltetrahydro-2H-pyran-4-yl)-2,4,12,13-tetrahydro-11H-5,7-(azenometheno)dipyrazolo[3,4-b:5′,1′-g][1]oxa[4,6,8]triazacycloundecine] |

— patent US11780851B2, “LRRK2 inhibitors” (H. Lundbeck A/S, priority 2021, dated 2023)
